Assay results as given in US20200371122A1, “BIOMARKER FOR SENESCENT CELLS” (Buck Institute for Research on Aging, priority 2017, published 2020).

Key:
[1] = test system: SASP factors; assay: qPCR of SASP and PTGS mRNAs in non-senescent cells treated with eicosanoids; type: cell-based, human; conditions: 10 μM, for PGJ2 and 15d-PGJ2 most factors except VEGF and PDGF
Protocol: RNA was extracted from cells or tissues using commercially available kits (Isolate II—Bioline for cells; Direct-zol—Zymo for tissues) according to the manufacturer's instructions. cDNA synthesis was performed using a High Capacity cDNA Reverse Transcription Kit (Thermo Fisher) according to the manufacturer's instructions. Quantitative PCR was performed on a LightCycler 480 II (Roche) using primers and probes designed for the Universal Probe Library. Primers and probes used for human transcripts were ACTB: 5′-CCAACCGCGAGAAGATGA (SEQ ID NO:1), 5′-TCCATCACGATGCCAGTG (SEQ ID NO:2), Probe #64; TUBA: 5′-cttcgtctccgccatcag (SEQ ID NO:3), 5′-ttgccaatctggacacca (SEQ ID NO:4), Probe #58; ALOX5: 5′-[…] (SEQ ID NO:5), 5′-[…] (SEQ ID NO:6), Probe #64; ALOX5AP: 5′-ggtctgcggggctacttt (SEQ ID NO:7), 5′-[…] (SEQ ID NO:8), Probe #18; ALOX12: 5′-[…] (SEQ ID NO:9), 5′-agccaggtcgtcaggag (SEQ ID NO:10), Probe #32; ALOX15: 5′-[…] (SEQ ID NO:11), 5′-[…] (SEQ ID NO:12), Probe #76; ALOX15B: 5′-[…] (SEQ ID NO:13), 5′-actgggaggcgaagaagg (SEQ ID NO:14), Probe #51; AKR1C1: 5′-catgcctgtcctgggattt (SEQ ID NO:15), 5′-[…] (SEQ ID NO:16), Probe #49; AKR1C2: 5′-ctatgcgcctgcagaggt (SEQ ID NO:17), 5′-[…] (SEQ ID NO:18), Probe #31; AKR1C3: 5′-[…] (SEQ ID NO:19), 5′-[…] (SEQ ID NO:20), Probe #78; CYSLTR2: 5′-[…] (SEQ ID NO:21), 5′-[…] (SEQ ID NO:22), Probe #18; DPEP1: 5′-gacgtcctgaggctggtg (SEQ ID NO:23), 5′-[…] (SEQ ID NO:24), Probe #9 (SEQ ID NO:25), ELOVL2: 5′-[…] (SEQ ID NO:26), 5′-[…] (SEQ ID NO:27), Probe #53; ELOVL4: 5′-catttggcccatggattc (SEQ ID NO:28), 5′-[…] (SEQ ID NO:29), Probe #31; ELOVL5: 5′-cccttccatgcgtccata (SEQ ID NO:30), 5′-[…] (SEQ ID NO:31), Probe #31; EPHX2: 5′-ttctgctggacaccctgaa (SEQ ID NO:32), 5′-[…] (SEQ ID NO:33), Probe #45; GPX4: 5′-ttcccgtgtaaccagttcg (SEQ ID NO:34), 5′-[…] (SEQ ID NO:35), Probe #36; LTA4H: 5′-ctgctctcacggtccagtc (SEQ ID NO:36), 5′-[…] (SEQ ID NO:37), Probe #64; LTBR2: 5′-[…] (SEQ ID NO:38), 5′-[…] (SEQ ID NO:39), Probe #33; LTC4S: 5′-[…] (SEQ ID NO:40), 5′-[…] (SEQ ID NO:41), Probe #18; PTGDS: 5′-[…] (SEQ ID NO:42), 5′-[…] […]

[2] = test system: bleomycin-induced fibrosis; conditions: administration; Kida 2016, Genovese 2005; cited from earlier work

CCCCC/C=C/C=C1/C(=O)C=C[C@@H]1C/C=C\CCCC(=O)O [15d-PGJ2]
SASP factor mRNAs [1]: strongly induced
bleomycin-induced fibrosis [2]: attenuate
